Read-outs that look alike come from different tables or passages of the source.
Legend:
[1] = test system: HT-29 human colorectal cancer cells; test: SRB cell proliferation (growth) assay, HT-29; type: cell-based; conditions: read-out: GI50 cell growth
Method: (§1) The impacts of MPT0G236 on cell viability (A,C) and cell growth (B) were evaluated with HCT-116 and HT-29 human colorectal cancer cells, as well as human umbilical vein endothelial cells (HUVECs). The cells were treated with different concentrations of the compound for 48 h. Cell viability was measured using an MTT assay, while cell growth was assessed using an SRB assay. The data are shown as the mean ± SEM on the basis of three independent experiments. […] The basal cells were fixed with 10% (w/v) trichloroacetic acid for 10 min. […] After treatment, the cells were fixed with 10% TCA, stained with SRB at a concentration of 0.4% (w/v), and washed with 1% acetic acid. After drying, the stained cells were lysed with 10 mM Trizma base, and the absorbance was measured at a wavelength of 515 nm.

[2] = test system: HT-29 human colorectal cancer cells; test: MTT cell viability assay, HT-29; type: cell-based; conditions: read-out: IC50 cell viability
[3] = test system: HCT-116 human colorectal cancer cells; test: SRB cell proliferation (growth) assay, HCT-116; type: cell-based; conditions: read-out: GI50 cell growth
Method: as §1

HCT-116 tumor = test system: HCT-116 tumor; parameters: method as in PMID 27344487; conditions: cited from earlier work
HDAC9 = target: T1, HDAC9 (Homo sapiens, UniProt Q9UKV0); test: HDAC enzyme inhibition assay, HDAC9; type: biochemical; conditions: Class IIa; Reaction Biology Corp. assay
T1 construct: purchased Reaction Biology Corp. (contract assay service)
T1 sequence (Q9UKV0 whole entry): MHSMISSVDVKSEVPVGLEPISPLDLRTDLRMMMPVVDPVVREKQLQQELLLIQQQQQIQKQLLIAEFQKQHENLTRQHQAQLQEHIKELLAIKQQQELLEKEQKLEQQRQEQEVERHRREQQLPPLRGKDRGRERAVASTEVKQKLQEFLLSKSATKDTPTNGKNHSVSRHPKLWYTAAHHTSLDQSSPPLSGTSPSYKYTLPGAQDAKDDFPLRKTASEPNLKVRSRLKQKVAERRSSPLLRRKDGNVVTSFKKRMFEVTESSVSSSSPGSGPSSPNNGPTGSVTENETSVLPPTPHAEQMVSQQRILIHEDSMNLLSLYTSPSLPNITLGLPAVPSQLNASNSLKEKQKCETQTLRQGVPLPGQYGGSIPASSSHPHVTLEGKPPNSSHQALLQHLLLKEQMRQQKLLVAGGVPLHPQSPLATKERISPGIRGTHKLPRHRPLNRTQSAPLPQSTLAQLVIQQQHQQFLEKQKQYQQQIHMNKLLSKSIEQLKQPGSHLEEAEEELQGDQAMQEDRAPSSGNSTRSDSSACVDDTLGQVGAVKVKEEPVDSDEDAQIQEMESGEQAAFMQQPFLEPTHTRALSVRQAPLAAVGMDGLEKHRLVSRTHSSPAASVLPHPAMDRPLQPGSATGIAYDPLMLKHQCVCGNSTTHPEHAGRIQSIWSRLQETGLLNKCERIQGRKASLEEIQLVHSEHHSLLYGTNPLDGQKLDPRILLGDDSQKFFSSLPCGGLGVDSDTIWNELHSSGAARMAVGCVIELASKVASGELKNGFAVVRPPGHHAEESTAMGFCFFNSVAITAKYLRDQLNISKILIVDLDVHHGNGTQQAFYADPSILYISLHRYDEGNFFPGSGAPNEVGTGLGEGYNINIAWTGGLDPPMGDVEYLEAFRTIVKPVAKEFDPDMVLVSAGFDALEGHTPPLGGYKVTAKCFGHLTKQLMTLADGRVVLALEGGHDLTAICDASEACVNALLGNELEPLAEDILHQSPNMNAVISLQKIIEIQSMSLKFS
Method: (§2) HDAC activity inhibition assays were performed by Reaction Biology Corp. (Malvern, PA, USA).

[4] = test system: acetyl-α-tubulin and acetyl-histone H3 in HCT-116 cells; test: Western blot of acetyl-α-tubulin and acetyl-histone H3, HCT-116; type: cell-based, human; conditions: 24 h
Method: (§3) Figure 2 MPT0G236 induced acetylation of α-tubulin and histone H3 in human colorectal cells. (A) The structure of MPT0G236. […] Protein expression was quantified by using the computerized image analysis application in ImageJ software V1.53k. The data are shown as the mean ± SEM on the basis of at least three independent experiments. * p < 0.05, ** p < 0.01, *** p < 0.001 and **** p < 0.0001 compared with the control group.
(§4) Cells were washed with PBS and incubated with lysis buffer (20 mM HEPES, pH 7.4; 2 mM EGTA; 0.1% Triton X-100; 50 mM β-glycerophosphate; 1 mM DTT; 10% glycerol; 1 μg/mL leupeptin; 1 mM sodium orthovanadate; 1 mM phenylmethylsulfonyl fluoride; 5 μg/mL aprotinin) for 10 min at 4 °C. The cells were then scraped off and incubated on ice for an additional 10 min before being centrifuged at 17,000× g for 30 min at 4 °C. The total protein […] was determined, and equal amounts of proteins were separated by […] on sodium dodecyl sulfate polyacrylamide gels (SDS-PAGE) and transferred onto a nitrocellulose membrane. […] Signals were detected with chemiluminescence reagents (GE Healthcare Corp., Buckinghamshire, UK), and the membranes were scanned using a ChemiDocTM MP Imaging System. Protein levels in the Western blots were then quantified using ImageJ software V1.53k.

HDAC8 = conditions: Class I; cited from earlier work
HDAC1 = test system: HDAC1; parameters: method as in PMID 27344487; conditions: Class I; cited from earlier work
[5] = test system: acetyl-α-tubulin and acetyl-histone H3 in HT-29 cells; test: Western blot of acetyl-α-tubulin and acetyl-histone H3, HT-29; type: cell-based, human; conditions: 24 h
Method: as §3, §4

HDAC4 = target: T2, HDAC4 (Homo sapiens, UniProt P56524); test: HDAC enzyme inhibition assay, HDAC4; type: biochemical; conditions: Class IIa; Reaction Biology Corp. assay
T2 construct: purchased Reaction Biology Corp. (contract assay service)
T2 sequence (P56524 whole entry): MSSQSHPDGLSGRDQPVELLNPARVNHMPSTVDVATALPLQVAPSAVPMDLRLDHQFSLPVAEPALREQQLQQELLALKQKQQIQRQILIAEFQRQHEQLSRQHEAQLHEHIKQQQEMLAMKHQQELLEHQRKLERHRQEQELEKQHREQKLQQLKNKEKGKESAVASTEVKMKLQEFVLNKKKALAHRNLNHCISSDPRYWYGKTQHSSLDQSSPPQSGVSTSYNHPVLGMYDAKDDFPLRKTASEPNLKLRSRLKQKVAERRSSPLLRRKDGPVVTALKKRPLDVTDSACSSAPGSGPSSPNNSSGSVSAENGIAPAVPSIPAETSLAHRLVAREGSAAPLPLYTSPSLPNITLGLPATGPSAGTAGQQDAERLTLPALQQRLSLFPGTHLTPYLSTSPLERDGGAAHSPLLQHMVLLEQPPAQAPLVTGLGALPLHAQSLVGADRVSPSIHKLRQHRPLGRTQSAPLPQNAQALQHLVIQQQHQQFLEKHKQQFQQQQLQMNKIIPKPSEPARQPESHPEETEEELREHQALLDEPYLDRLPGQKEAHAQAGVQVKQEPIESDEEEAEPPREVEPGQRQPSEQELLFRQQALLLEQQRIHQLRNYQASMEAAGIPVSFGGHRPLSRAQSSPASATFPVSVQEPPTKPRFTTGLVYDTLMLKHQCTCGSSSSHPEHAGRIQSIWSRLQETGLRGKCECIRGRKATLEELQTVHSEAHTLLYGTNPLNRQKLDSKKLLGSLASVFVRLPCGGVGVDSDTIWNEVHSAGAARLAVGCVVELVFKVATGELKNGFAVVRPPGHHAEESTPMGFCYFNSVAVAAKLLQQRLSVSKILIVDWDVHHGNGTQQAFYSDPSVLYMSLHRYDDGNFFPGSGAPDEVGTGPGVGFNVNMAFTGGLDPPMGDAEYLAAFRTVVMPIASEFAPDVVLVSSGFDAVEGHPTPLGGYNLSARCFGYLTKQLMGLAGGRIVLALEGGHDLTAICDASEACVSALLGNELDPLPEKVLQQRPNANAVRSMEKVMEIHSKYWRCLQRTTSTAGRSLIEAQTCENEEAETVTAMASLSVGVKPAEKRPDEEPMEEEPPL
Method: as §2

HDAC7 = target: T3, HDAC7 (Homo sapiens, UniProt Q8WUI4); test: HDAC enzyme inhibition assay, HDAC7; type: biochemical; conditions: Class IIa; Reaction Biology Corp. assay
T3 construct: purchased Reaction Biology Corp. (contract assay service)
T3 sequence (Q8WUI4 1-952): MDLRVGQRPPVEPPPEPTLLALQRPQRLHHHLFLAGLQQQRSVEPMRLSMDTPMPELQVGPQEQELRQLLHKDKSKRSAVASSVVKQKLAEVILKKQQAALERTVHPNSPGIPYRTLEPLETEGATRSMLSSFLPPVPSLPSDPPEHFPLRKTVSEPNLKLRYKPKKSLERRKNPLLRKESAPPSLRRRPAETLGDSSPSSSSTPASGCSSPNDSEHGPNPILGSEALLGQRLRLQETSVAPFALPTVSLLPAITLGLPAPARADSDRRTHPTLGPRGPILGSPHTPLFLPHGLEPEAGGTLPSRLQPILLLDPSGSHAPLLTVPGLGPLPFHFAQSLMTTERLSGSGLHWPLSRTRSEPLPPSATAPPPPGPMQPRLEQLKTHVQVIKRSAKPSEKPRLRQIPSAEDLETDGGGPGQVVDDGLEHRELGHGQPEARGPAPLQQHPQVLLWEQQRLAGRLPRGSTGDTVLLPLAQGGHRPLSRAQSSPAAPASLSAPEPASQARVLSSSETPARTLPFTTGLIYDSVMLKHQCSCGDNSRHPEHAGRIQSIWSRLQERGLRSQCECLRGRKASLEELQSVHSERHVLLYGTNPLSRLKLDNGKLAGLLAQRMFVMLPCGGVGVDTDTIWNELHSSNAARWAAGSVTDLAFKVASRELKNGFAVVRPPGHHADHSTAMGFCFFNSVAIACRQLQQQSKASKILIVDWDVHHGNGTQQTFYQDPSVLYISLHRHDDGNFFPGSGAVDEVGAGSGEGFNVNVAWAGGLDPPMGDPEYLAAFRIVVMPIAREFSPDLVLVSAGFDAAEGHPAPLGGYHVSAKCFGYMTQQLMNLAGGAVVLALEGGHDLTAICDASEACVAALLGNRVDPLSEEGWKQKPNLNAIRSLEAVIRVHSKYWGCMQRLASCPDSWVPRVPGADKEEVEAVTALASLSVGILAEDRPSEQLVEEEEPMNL
Method: as §2

HDAC5 = target: T4, HDAC5 (Homo sapiens, UniProt Q9UQL6); test: HDAC enzyme inhibition assay, HDAC5; type: biochemical; conditions: Class IIa; Reaction Biology Corp. assay
T4 construct: purchased Reaction Biology Corp. (contract assay service)
T4 sequence (Q9UQL6 whole entry): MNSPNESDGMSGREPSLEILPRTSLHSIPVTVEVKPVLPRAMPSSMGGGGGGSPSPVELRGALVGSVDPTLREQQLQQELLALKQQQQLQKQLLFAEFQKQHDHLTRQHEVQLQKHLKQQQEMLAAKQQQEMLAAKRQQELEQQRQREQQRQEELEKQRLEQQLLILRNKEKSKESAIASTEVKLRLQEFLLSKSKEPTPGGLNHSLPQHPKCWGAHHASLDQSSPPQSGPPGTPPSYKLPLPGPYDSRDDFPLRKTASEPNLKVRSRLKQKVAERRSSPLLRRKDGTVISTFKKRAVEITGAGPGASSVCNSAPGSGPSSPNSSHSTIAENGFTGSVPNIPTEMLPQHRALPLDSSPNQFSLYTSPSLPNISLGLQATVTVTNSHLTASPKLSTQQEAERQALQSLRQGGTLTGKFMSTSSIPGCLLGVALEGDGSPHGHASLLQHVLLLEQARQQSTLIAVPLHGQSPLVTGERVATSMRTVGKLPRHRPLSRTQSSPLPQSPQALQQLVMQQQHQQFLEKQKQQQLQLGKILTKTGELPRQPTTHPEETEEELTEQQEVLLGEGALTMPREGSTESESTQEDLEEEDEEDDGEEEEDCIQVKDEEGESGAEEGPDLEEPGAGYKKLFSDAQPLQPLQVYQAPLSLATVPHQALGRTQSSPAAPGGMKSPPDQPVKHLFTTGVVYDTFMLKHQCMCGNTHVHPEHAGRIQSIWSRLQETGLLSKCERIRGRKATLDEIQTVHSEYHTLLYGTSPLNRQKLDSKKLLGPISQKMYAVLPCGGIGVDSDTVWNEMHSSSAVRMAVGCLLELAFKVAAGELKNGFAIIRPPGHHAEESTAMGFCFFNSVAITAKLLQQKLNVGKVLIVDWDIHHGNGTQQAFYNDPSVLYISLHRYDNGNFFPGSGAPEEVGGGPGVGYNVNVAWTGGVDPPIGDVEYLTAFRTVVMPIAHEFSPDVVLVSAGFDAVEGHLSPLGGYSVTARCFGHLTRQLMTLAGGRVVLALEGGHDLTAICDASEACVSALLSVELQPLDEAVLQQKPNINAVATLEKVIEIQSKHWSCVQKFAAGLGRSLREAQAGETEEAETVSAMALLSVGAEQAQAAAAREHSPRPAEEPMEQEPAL
Method: as §2

[6] = test system: HCT-116 human colorectal cancer cells; test: MTT cell viability assay, HCT-116; type: cell-based; conditions: 48 h
PC-3 cells = test system: PC-3 cells; parameters: method as in PMID 27344487; conditions: previous study, read-out: GI50 cell proliferation; cited from earlier work
HCT-116 cells = test system: HCT-116 cells; parameters: method as in PMID 27344487; conditions: previous study, read-out: GI50 cell proliferation; cited from earlier work
HDAC6 = test system: HDAC6; parameters: method as in PMID 27344487; conditions: Class IIb; cited from earlier work
[7] = test system: human umbilical vein endothelial cells (HUVECs); test: MTT cell viability assay, HUVEC; type: cell-based
[8] = parameters: method as in PMID 27344487; conditions: in vivo HCT-116 tumor study; cited from earlier work
HDAC3 = target: T5, HDAC3 (Homo sapiens, UniProt O15379); test: HDAC enzyme inhibition assay, HDAC3; type: biochemical; conditions: Class I; Reaction Biology Corp. assay
T5 construct: purchased Reaction Biology Corp. (contract assay service)
T5 sequence (O15379 whole entry): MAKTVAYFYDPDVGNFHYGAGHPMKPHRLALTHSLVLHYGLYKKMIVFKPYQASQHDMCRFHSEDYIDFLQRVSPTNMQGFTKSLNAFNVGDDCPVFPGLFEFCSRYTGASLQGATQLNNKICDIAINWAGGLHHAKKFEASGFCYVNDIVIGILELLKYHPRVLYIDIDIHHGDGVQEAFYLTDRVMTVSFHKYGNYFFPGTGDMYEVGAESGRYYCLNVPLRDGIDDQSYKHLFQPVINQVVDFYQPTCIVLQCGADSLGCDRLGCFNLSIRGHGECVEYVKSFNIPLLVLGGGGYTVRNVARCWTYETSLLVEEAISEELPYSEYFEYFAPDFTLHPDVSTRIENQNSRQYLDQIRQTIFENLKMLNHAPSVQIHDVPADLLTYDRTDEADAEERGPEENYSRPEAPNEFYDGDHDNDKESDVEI
T5 sequence (Q9Y618 395-489 partner limits assumed): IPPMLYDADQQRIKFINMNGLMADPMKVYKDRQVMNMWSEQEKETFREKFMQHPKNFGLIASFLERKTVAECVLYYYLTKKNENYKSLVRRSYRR
Method: as §2

HDAC2 = test system: HDAC2; parameters: method as in PMID 27344487; conditions: Class I; cited from earlier work
A549 cells = test system: A549 cells; parameters: method as in PMID 27344487; conditions: previous study, read-out: GI50 cell proliferation; cited from earlier work

O=C(CCCCCCC(=O)Nc1ccccc1)NO [SAHA, Suberoylanilide hydroxamic acid, reference compound]
GI50 ([1]; HT-29, 48 h): 0.47 µM | IC50 ([2]; HT-29, 48 h): 2.31 µM | GI50 ([3]; HCT-116, 48 h): 0.63 µM

O=C(/C=C/c1cccc(S(=O)(=O)c2ccc3ccccc3n2)c1)NO [MPT0G236]
HCT-116 tumor growth suppression (HCT-116 tumor; oral administration of 50 mg/kg): 32.2% | HCT-116 tumor growth suppression (HCT-116 tumor; oral administration of 100 mg/kg): 58.8% | IC50 (HDAC9): 12.6 µM | concentration that significantly increased accumulation of acetyl-α-tubulin [4]: 0.3 µM | concentration that significantly increased histone acetylation [4]: 1 µM | IC50 (HDAC8): 0.13 µM | IC50 (HDAC1): 0.014 µM | concentration that significantly elevated acetyl-α-tubulin [5]: 3 µM | concentration that significantly elevated histone acetylation [5]: 1 µM | IC50 (HDAC4): 19.7 µM | IC50 (HDAC7): 12.3 µM | IC50 (HDAC5): 15.5 µM | IC50 [6]: 0.35 µM | GI50 ([1]; HT-29, SRB, 48 h): 0.31 µM | GI50 (PC-3 cells): 0.15 ± 0.01 µM | IC50 ([2]; HT-29, MTT, 48 h): 0.88 µM | GI50 ([3]; HCT-116, SRB, 48 h): 0.1 µM | GI50 (HCT-116 cells): 0.08 ± 0.001 µM | IC50 (HDAC6): 0.015 µM | normal cells (HUVEC) less sensitive than colorectal cancer cells ([7]; HUVEC IC50 versus HCT-116 and HT-29 IC50): more than 10 fold | IC50 ([7]; Homo sapiens, HUVEC, 48 h): 15.1 µM | effect on body weight [8]: without affecting body weight | IC50 (HDAC3): 0.07 µM | IC50 (HDAC2): 0.0115 µM | GI50 (A549 cells): 0.27 ± 0.02 µM

From article PMC10454243, “Anticancer Study of a Novel Pan-HDAC Inhibitor MPT0G236 in Colorectal Cancer Cells” (International Journal of Molecular Sciences, 2023)
